Reference: ChEMBL document CHEMBL3886281, “Furo[3,4-c]quinoline derivatives, medicaments containing such compounds, their use and process for their preparation” (2015)

Molecular target: T1, Cholesteryl ester transfer protein (Homo sapiens, UniProt P11597)
T1 sequence (P11597 whole entry): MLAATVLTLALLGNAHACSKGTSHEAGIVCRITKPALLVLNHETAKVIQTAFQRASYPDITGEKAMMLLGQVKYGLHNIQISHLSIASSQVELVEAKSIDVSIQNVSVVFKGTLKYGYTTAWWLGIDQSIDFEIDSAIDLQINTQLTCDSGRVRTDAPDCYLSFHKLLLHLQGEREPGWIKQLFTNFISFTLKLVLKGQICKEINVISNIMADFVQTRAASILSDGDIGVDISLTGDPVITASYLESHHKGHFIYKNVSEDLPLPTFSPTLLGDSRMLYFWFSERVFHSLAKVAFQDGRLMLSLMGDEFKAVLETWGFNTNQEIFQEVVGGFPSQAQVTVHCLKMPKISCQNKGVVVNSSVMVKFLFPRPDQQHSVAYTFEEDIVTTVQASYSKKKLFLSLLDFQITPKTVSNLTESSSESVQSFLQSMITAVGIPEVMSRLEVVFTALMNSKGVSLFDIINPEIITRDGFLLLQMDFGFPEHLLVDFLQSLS
Experiment: CETP In Vitro Assay: CETP inhibitory activity of compounds of the present invention can be determined in a fluorometric assay purchased from Roar Biomedical, Inc. (New York, N.Y., USA). […] Recombinant human CETP was partially purified from medium conditioned by CETP expressing CHO cells. In a 384 well format 2.5 ul of compound solution in DMSO was combined with 2 ul of donor solution, 2 ul of acceptor solution and 0.8 ul of recombinant human CETP solution in a total volume of 100 ul with assay buffer and incubated for 3 hours at 37° C. The fluorescence intensity was measured at excitation wavelength of 485 nm and emission wavelength of 535 nm.

IC50: 210 nM
Structure (SMILES): CC(C)c1nc2c(c3c1[C@@H](c1ccc(C(F)(F)F)nc1)OC31CCOCC1)[C@@H](O)CC1(CC1)[C@H]2O
